Test results reported in patent US10047036B2, “Method for the synthesis of hydroxy-triglycerides and uses thereof for the prevention and treatment of diseases” (UNIVERSITAT DE LES ILLES BALEARS, priority 2014, dated 2018).
Substitutions are numbered along the chain they refer to.

Columns and labels:
[1] = target: T1, Glycogen Branching Enzyme 1 (GBE1) wild type (Homo sapiens, UniProt Q04446); experiment: activity of purified enzyme GBE1 in the presence of PC membranes; format: biochemical; settings: PC membranes with TGM 20 mol %; non-mutated enzyme = 100% (0.76 nmol/min · ng protein)
T1 sequence (Q04446 1-702): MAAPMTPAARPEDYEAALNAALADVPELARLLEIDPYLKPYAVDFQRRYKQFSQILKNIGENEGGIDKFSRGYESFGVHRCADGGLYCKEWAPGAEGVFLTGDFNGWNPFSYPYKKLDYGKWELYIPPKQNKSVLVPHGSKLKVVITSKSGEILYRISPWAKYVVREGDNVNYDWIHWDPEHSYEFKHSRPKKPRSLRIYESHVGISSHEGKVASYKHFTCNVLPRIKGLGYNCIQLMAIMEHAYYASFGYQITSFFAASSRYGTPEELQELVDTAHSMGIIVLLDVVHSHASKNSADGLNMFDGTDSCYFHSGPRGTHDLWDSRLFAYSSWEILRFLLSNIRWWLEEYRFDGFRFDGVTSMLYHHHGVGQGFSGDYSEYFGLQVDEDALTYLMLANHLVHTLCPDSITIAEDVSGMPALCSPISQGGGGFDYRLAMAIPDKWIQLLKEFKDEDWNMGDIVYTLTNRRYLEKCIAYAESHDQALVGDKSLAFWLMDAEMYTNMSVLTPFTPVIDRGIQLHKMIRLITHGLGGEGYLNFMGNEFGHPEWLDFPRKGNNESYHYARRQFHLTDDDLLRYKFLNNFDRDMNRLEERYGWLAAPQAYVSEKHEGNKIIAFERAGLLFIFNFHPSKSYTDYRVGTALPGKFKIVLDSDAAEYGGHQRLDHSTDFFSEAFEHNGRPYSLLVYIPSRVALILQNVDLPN
Source text: (§1) It has been possible to observe that the molecules of the present invention are capable of regulating the activity of the Glycogen Branching Enzyme 1 (GBE1) and its joining to membranes (Table 9). Alterations in this enzyme give rise to a neurodegenerative process known as APBD (Kakhlon et al., 2013). It has been described that a modification of tyrosine in position 329 of this enzyme (Y329S) causes a reduction in the activity of GBE1. This gives rise to a lower branching of glycogen, which precipitates forming […] which interfere with cell activity (Kakhlon et al., 2013). This gives rise to problems in the function of certain organs, to motor problems and, in some cases, to cognitive decline. We have been able to verify that the hydroxy-triglycerides of the present invention are capable of regulating the joining of native GBE1 (wild type, wt) and with the variant Y329S to membranes and to increase the activity of the form Y329S, which is very low in normal conditions (Table 9). For this reason, the molecules of the present invention are effective for the prevention and treatment of the polyglucosan bodies disease, APBD.

[2] = target: T2, Glycogen Branching Enzyme 1 (GBE1) variant Y329S (Homo sapiens, UniProt Q04446, Y329S); experiment: activity of purified enzyme GBE1 Y329S in the presence of PC membranes; format: biochemical; settings: PC membranes with TGM 20 mol %; non-mutated enzyme = 100% (0.76 nmol/min · ng protein)
T2 sequence (Q04446 1-702 Y329S): T1 sequence (Q04446 1-702) with Y329S
Source text: as §1

body weight of SHR rats = format: in vivo; settings: 14 days, 600 mg/kg, 12 h, p.o., basal weight 342 grams
Source text: (§2) Metabolic and cardiovascular pathologies are closely related. The overfeeding which characterises our society not only gives rise to problems of obesity and excess weight. It is also linked to the appearance of diabetes, dyslipidaemia, hypertension, strokes, arteriosclerosis, ictus, etc. All of these pathologies increase the risk of premature death and can even cause death. In this sense, certain natural oils show a certain efficacy against this type of pathologies, but their power is limited. In contrast, the molecules of the invention have an important effect against the development of this type of pathologies. To be able to study the effects of the compounds of the invention for the prevention and treatment of metabolic and cardiovascular pathologies, hypertensive rats were used (SHR strain, spontaneously hypertensive rats). These rats present obesity, high blood pressure, dyslipidaemia (hypercholesterolemia and hypertriglyceridemia), diabetes, metabolic syndrome and other related health problems.

triglycerides in plasma = experiment: plasma triglycerides in SHR rats; format: in vivo; settings: 6 days, 400 mg/kg, p.o.
Source text: as §2, with “problems. […] [table]” for “problems.”

SMILES | Activity GBE1wt [1] [%] | Activity Y329S [2] [%] | ΔWeight, change in weight (body weight of SHR rats) [g] | TG, levels of triglycerides in plasma (triglycerides in plasma) [mg/dL]
CCCCCC=CCC=CCC=CCC=CCCC(O)C(=O)OCC(COC(=O)C(O)CCC=CCC=CCC=CCC=CCCCCC)OC(=O)C(O)CCC=CCC=CCC=CCC=CCCCCC (centres unmarked) [TGM4, 1,2,3-tri(2′-hydroxy-eicosa-5′,8′,11′,14′-tetraenoyl)glycerol] | 31 ± 4 | 4 ± 1 | -25 ± 5 | 69.3 ± 3
CCCCCC=CCC=CCCCCCCC(O)C(=O)OCC(COC(=O)C(O)CCCCCCC=CCC=CCCCCC)OC(=O)C(O)CCCCCCC=CCC=CCCCCC (centres unmarked) [TGM2, 1,2,3-tri(2′-hydroxy-octadec-9′,12′-dienoyl)glycerol] | 72 ± 5 | 11 ± 2 | -32 ± 6 | 61.7 ± 3
CCC=CCC=CCC=CCC=CCC=CCCC(O)C(=O)OCC(COC(=O)C(O)CCC=CCC=CCC=CCC=CCC=CCC)OC(=O)C(O)CCC=CCC=CCC=CCC=CCC=CCC (centres unmarked) [TGM5, 1,2,3-tri(2′-hydroxy-eicosa-5′,8′,11′,14′,17′-pentaenoyl)glycerol] | 24 ± 2 | 16 ± 3 | -9 ± 3 | 56.2 ± 3
CCCCCCCCC=CCCCCCCC(O)C(=O)OCC(COC(=O)C(O)CCCCCCC=CCCCCCCCC)OC(=O)C(O)CCCCCCC=CCCCCCCCC (centres unmarked) [TGM1, 1,2,3-tri(2′-hydroxy-octadec-9′-enoyl)glycerol] | 89 ± 10 | 7 ± 1 | -22 ± 5 | 51.6 ± 4
CCCCCC=CCC=CCC=CCCCC(O)C(=O)OCC(COC(=O)C(O)CCCC=CCC=CCC=CCCCCC)OC(=O)C(O)CCCC=CCC=CCC=CCCCCC (centres unmarked) [TGM3G, 1,2,3-tri(2′-hydroxy-octadec-6′,9′,12′-trienoyl)glycerol] | 69 ± 7 | 9 ± 4 | -12 ± 3 | 64.1 ± 5
CCC=CCC=CCC=CCCCCCCC(O)C(=O)OCC(COC(=O)C(O)CCCCCCC=CCC=CCC=CCC)OC(=O)C(O)CCCCCCC=CCC=CCC=CCC (centres unmarked) [TGM3A, 1,2,3-tri(2′-hydroxy-octadec-9′,12′,15′-trienoyl)glycerol] | 88 ± 2 | 10 ± 2 | -14 ± 4 | 54.8 ± 4
CCC=CCC=CCC=CCC=CCC=CCC=CCC(O)C(=O)OCC(COC(=O)C(O)CC=CCC=CCC=CCC=CCC=CCC=CCC)OC(=O)C(O)CC=CCC=CCC=CCC=CCC=CCC=CCC (centres unmarked) [TGM6, 1,2,3-tri(2′-hydroxy-docosa-4′,7′,10′,13′,16′,19′-hexanoyl)glycerol] | 33 ± 3 | 5 ± 1 | -19 ± 4 | 49.4 ± 4
CCCCCC(O)C(=O)OCC(COC(=O)C(O)CCCCC)OC(=O)C(O)CCCCC (centres unmarked) [TGM0, 1,2,3-tri(2′-hydroxyheptanoyl)glycerol] | 95 ± 12 | 20 ± 2 | -4 ± 2 | 69.7 ± 7
